Data on 13 compounds can be found in patent US11254686B1 (Corvus Pharmaceuticals, Inc., priority 2017, dated 2022).

The target of one data set is adenosine A2B receptor (Homo sapiens (Human), UniProt P29275). In words: Adenosine receptor activity assay (Table 1), A2B activity. It counts as biochemical. Conditions: for Ratio: A2A activity to A2B activity (A2A/A2B); for IC50: read-out: Ave A2B cAMP IC50.
The next data set deals with adenosine A2A receptor (Homo sapiens (Human), UniProt P29274). In words: Adenosine receptor activity assay (Table 1), A2A activity. It counts as biochemical. As to conditions: read-out: Ave A2A cAMP IC50.
Data set [1] addresses T1, adenosine A1 receptor (Homo sapiens (Human), UniProt P30542). In words: Adenosine receptor activity assay (Table 1), A1 cAMP. In kind it is cell-based.
Data set [2] has as its target T2, adenosine A3 receptor (Homo sapiens (Human), UniProt P0DMS8). In words: Adenosine receptor activity assay (Table 1), A3 cAMP. In kind it is cell-based.
A short description of data set [3]: Hepatocyte intrinsic clearance, rat. In kind it is in vitro ADME. As to conditions: hepatocytes.
The nature of data set [4]: Hepatocyte intrinsic clearance, human. It counts as in vitro ADME. Conditions: hepatocytes.
In data set [5] the target is T1, adenosine A1 receptor. In words: A1 cAMP IC50 assay (Table 1). In kind it is biochemical.
Data set [6] concerns the target T2, adenosine A3 receptor. In words: A3 cAMP IC50 assay (Table 1). It counts as biochemical.
A further data set concerns the target CYP3A4 (Homo sapiens (Human), UniProt P08684). In words: CYP450 inhibition at 10 μM, CYP3A4. In kind it is in vitro ADME. Conditions: human, 10 μM, read-out: CYP 450 % INH @ 10 μM.
Another data set has as its target CYP2D6 (Homo sapiens (Human), UniProt P10635). In words: CYP450 inhibition at 10 μM, CYP2D6. It counts as in vitro ADME. Conditions: read-out: CYP 450 % INH @ 10 μM.
Data set [7] is described as follows: Liver microsome (LM) intrinsic clearance, rat. It counts as in vitro ADME.
Data set [8] is described as follows: Liver microsome (LM) intrinsic clearance, human. In kind it is in vitro ADME.
A short description of data set [9]: Hepatocyte (Hep) intrinsic clearance, rat. It counts as in vitro ADME. As to conditions: hepatocytes.
Data set [10] is described as follows: Hepatocyte (Hep) intrinsic clearance, human. In kind it is in vitro ADME. As to conditions: hepatocytes.

Where only a bound is given, the exact number is not on record here.

T2 sequence (P0DMS8 whole entry): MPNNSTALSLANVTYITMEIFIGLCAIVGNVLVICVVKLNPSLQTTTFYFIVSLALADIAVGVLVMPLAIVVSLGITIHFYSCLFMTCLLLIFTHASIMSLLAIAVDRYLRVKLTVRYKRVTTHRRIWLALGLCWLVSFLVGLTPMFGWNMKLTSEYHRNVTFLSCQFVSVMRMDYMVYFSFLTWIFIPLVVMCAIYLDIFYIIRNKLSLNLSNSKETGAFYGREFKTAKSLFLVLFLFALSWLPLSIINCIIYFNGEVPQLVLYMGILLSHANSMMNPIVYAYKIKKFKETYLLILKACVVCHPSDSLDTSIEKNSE
T1 sequence (P30542 whole entry): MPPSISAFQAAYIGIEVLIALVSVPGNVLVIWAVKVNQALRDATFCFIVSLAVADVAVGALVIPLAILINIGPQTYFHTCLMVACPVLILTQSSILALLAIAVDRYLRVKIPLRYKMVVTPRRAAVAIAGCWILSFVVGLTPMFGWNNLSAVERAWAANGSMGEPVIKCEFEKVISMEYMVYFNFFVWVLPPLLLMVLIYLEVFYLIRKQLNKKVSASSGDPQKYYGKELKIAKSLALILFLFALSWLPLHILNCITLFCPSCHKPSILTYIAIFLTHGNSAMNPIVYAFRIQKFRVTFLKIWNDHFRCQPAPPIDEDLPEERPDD
adenosine A2B receptor, sequence (P29275 whole entry): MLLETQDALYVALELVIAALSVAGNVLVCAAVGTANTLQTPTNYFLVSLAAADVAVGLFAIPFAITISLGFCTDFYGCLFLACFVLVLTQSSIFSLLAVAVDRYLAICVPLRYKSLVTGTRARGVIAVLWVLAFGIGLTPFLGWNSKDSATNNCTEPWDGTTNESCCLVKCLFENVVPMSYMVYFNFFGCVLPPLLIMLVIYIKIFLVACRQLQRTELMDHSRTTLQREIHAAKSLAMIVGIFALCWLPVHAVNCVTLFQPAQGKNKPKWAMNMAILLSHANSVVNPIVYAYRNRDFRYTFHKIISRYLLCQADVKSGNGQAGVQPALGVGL
CYP3A4, sequence (P08684 whole entry): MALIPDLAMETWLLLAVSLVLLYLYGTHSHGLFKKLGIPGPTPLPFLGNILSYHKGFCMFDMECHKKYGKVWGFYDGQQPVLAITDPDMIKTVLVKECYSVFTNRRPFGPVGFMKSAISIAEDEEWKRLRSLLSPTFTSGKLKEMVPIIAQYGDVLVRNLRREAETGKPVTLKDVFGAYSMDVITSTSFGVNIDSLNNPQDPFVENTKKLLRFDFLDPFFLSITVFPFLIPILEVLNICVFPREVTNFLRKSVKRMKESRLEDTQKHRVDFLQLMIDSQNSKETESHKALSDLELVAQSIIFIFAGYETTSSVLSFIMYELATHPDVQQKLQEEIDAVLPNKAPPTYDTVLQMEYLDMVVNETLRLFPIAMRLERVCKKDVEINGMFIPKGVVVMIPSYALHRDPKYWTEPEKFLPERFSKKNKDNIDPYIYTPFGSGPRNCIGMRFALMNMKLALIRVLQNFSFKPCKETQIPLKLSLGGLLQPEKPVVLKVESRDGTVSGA
CYP2D6, sequence (P10635 whole entry): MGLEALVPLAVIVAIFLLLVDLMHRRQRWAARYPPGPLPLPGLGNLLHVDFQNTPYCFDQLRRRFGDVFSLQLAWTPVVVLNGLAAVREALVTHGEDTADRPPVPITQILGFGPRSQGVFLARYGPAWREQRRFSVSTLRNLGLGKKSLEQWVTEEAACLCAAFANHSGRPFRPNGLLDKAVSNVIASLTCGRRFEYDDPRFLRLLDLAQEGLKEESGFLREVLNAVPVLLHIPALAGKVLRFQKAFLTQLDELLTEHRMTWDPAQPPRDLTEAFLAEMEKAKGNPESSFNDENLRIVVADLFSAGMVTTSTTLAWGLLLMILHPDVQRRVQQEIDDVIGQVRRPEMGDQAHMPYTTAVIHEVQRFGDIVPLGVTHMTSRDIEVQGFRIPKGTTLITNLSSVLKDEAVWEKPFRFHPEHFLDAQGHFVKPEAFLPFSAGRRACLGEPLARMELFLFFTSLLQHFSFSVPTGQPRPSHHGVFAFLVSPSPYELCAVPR
adenosine A2A receptor, sequence (P29274 whole entry): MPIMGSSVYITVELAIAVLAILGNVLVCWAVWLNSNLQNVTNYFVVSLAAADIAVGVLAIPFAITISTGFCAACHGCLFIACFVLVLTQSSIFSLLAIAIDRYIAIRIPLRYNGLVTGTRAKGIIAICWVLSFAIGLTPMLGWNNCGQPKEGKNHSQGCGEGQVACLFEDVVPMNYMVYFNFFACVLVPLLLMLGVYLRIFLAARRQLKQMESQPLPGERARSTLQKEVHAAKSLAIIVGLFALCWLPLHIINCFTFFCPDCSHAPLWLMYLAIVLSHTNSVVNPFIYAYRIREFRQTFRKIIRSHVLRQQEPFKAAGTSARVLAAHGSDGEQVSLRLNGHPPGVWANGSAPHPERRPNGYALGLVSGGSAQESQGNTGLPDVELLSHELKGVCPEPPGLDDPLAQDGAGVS

By IC50 is commonly meant the concentration that gives 50% inhibition. Broadly, the hepatocyte CLint is the capacity of the preparation to metabolise the compound, expressed as a volume cleared per time. Read a low hepatocyte CLint as slow turnover. For `Cc1cc2nc(N[C@@H](C)c3cncc(F)c3)nc(C(=O)NC[C@@H](C)O)c2s1` [Example Z278, 2-(((S)-1-(5-Fluoropyridin-3-yl)ethyl)amino)-N—((R)-2-hydroxypropyl)-6-methylthieno[3,2-d]pyrimidine-4-carboxamide], at adenosine A2B receptor, the Ratio is 87.33. The IC50 was less than 10 nM on adenosine A2B receptor, 50 to 100 nM on adenosine A2A receptor, 50 to 100 nM against adenosine A1 receptor [1] and 50 to 100 nM against adenosine A3 receptor [2]. The intrinsic clearance (hepatocyte CLint) amounted to 43.3 µL/min/1e6 cells in data set [3] and 14.8 µL/min/1e6 cells in data set [4].
For the compound `Cc1cc2nc(N[C@@H](C)c3cncc(F)c3)nc(C(=O)NC[C@H](C)O)c2s1` [Example Z277, 2-(((S)-1-(5-Fluoropyridin-3-yl)ethyl)amino)-N—((S)-2-hydroxypropyl)-6-methylthieno[3,2-d]pyrimidine-4-carboxamide], on adenosine A2B receptor, the Ratio worked out at 167.29. In addition, the half-inhibitory concentration (IC50) at adenosine A2B receptor was less than 10 nM; on adenosine A2A receptor it was 100 to 500 nM; against adenosine A1 receptor [1] it was 50 to 100 nM; at adenosine A3 receptor [2] it was 50 to 100 nM. Also, the intrinsic clearance (hepatocyte CLint) is 65.9 µL/min/1e6 cells in [3] and 16.4 µL/min/1e6 cells in [4].
As to `Cc1cc2nc(N[C@@H](C)c3cncc(F)c3)nc(C(=O)N3CC[C@H](O)C3)c2s1` [Example Z249, (2-(((S)-1-(5-Fluoropyridin-3-yl)ethyl)amino)-6-methylthieno[3,2-d]pyrimidin-4-yl)((S)-3-hydroxypyrrolidin-1-yl)methanone], on adenosine A2B receptor, the Ratio stood at 197.12. For the same compound, the IC50 at adenosine A2B receptor was less than 10 nM; at adenosine A2A receptor, 100 to 500 nM; at adenosine A1 receptor [1], more than 500 nM; at adenosine A3 receptor [2], more than 500 nM. Besides, the values for the intrinsic clearance (hepatocyte CLint) in [3] and in [4] were 20.9 µL/min/1e6 cells and 4.53 µL/min/1e6 cells, respectively.
As to `O=C(c1nc(NCc2cncc(F)c2)nc2ccsc12)N1CC[C@H](O)C1` [Example Z62, (S)-(2-(((5-Fluoropyridin-3-yl)methyl)amino)thieno[3,2-d]pyrimidin-4-yl)(3-hydroxypyrrolidin-1-yl)methanone], the Ratio at adenosine A2B receptor stood at 60.76. The IC50 on adenosine A2B receptor was 10 to 50 nM; at adenosine A2A receptor, more than 500 nM; on adenosine A1 receptor [5], more than 500 nM; against adenosine A3 receptor [6], more than 500 nM. Further, the inhibition at 10 µM worked out at 34% at CYP3A4 and 5% at CYP2D6. Moreover, the figures for the “LM CLint” value in [7] and in [8] were 12.51 μL/min/mg/protein and 10.76 μL/min/mg/protein, respectively. The hepatocyte CLint was found to be 25.6 µL/min/1e6 cells in [9] and 7.12 µL/min/1e6 cells in data set [10].
For `C[C@H](Nc1nc(C(=O)N2CC[C@H](O)C2)c2sc(C(F)(F)F)cc2n1)c1cccnc1` [Example Z333, ((S)-3-Hydroxypyrrolidin-1-yl)(2-(((S)-1-(pyridin-3-yl)ethyl)amino)-6-(trifluoromethyl)thieno[3,2-d]pyrimidin-4-yl)methanone], at adenosine A2B receptor, the Ratio came to 146.28. For the same compound, the half-inhibitory concentration (IC50) was 10 to 50 nM on adenosine A2B receptor, more than 500 nM at adenosine A2A receptor, more than 500 nM at adenosine A1 receptor [1] and more than 500 nM against adenosine A3 receptor [2]. The hepatocyte CLint in data set [3] is 25.7 µL/min/1e6 cells; in data set [4] it was 19.5 µL/min/1e6 cells.
As for `C[C@H](Nc1nc(C(=O)N2CC[C@@H](F)C2)c2sccc2n1)c1cccnc1` [Example Z8, ((R)-3-Fluoropyrrolidin-1-yl)(2-(((S)-1-(pyridin-3-yl)ethyl)amino)thieno[3,2-d]pyrimidin-4-yl)methanone], the Ratio at adenosine A2B receptor was 7.83. The IC50 is 10 to 50 nM on adenosine A2B receptor, 100 to 500 nM at adenosine A2A receptor, more than 500 nM at adenosine A1 receptor [5] and more than 500 nM at adenosine A3 receptor [6]. For the same compound, the inhibition at 10 µM is 74% at CYP3A4 and 41% on CYP2D6. Also, the results for the “LM CLint” value in [7] and in data set [8] were 20.43 μL/min/mg/protein and 17.06 μL/min/mg/protein, respectively. Moreover, the hepatocyte CLint amounted to 47.6 µL/min/1e6 cells in data set [9] and 7.75 µL/min/1e6 cells in data set [10].
As to `Cc1cncc(CNc2nc(C(=O)N3CCC3)c3sccc3n2)c1` [Example Z55, Azetidin-1-yl(2-(((5-methylpyridin-3-yl)methyl)amino)thieno[3,2-d]pyrimidin-4-yl)methanone], on adenosine A2B receptor, the Ratio is given as 127.22. The half-maximal inhibitory concentration (IC50) on adenosine A2B receptor was 10 to 50 nM; at adenosine A2A receptor, more than 500 nM; on adenosine A1 receptor [5], more than 500 nM; at adenosine A3 receptor [6] it was more than 500 nM. Further, the inhibition at 10 µM on CYP3A4 is 76%; on CYP2D6, 19%. Besides, the figures for the “LM CLint” value in data set [7] and in data set [8] were 94.74 μL/min/mg/protein and 63.74 μL/min/mg/protein, respectively. The intrinsic clearance (hepatocyte CLint) in data set [9] came out at 64.7 µL/min/1e6 cells; in data set [10], 25.6 µL/min/1e6 cells.
As for `Cc1cc2nc(N[C@@H](C)c3cccnc3)nc(C(=O)N3CC[C@@H](O)C3)c2s1` [Example Z281, ((R)-3-Hydroxypyrrolidin-1-yl)(6-methyl-2-(((S)-1-(pyridin-3-yl)ethyl)amino)thieno[3,2-d]pyrimidin-4-yl)methanone], the Ratio on adenosine A2B receptor stood at 88.64. Moreover, the IC50 on adenosine A2B receptor was 10 to 50 nM; at adenosine A2A receptor it was more than 500 nM; against adenosine A1 receptor [1] it was more than 500 nM; against adenosine A3 receptor [2] it was more than 500 nM. Also, the values for the intrinsic clearance (hepatocyte CLint) in data set [3] and in data set [4] were 18.6 µL/min/1e6 cells and 5.45 µL/min/1e6 cells, respectively.
As to `C[C@H](Nc1nc(C(=O)N2CC[C@@H](O)C2)c2sccc2n1)c1cccnc1` [Example Z29, ((R)-3-Hydroxypyrrolidin-1-yl)(2-(((S)-1-(pyridin-3-yl)ethyl)amino)thieno[3,2-d]pyrimidin-4-yl)methanone], on adenosine A2B receptor, the Ratio was 24.95. Further, the concentration for half-maximal inhibition (IC50) on adenosine A2B receptor was 50 to 100 nM; at adenosine A2A receptor, more than 500 nM; at adenosine A1 receptor [5], more than 500 nM; against adenosine A3 receptor [6], more than 500 nM. Further, the inhibition at 10 µM on CYP3A4 is 26%; at CYP2D6, 16%. Moreover, the “LM CLint” value in data set [7] is given as 9.22 μL/min/mg/protein; in data set [8], 4.28 μL/min/mg/protein. The hepatocyte CLint came to 44 µL/min/1e6 cells in data set [9] and 4.27 µL/min/1e6 cells in [10].
For the compound `C[C@H](NC(=O)c1nc(N[C@@H](C)c2ccccn2)nc2ccsc12)c1ccccn1` [Example Z54, N—((S)-1-(Pyridin-2-yl)ethyl)-2-(((S)-1-(pyridin-2-yl)ethyl)amino)thieno[3,2-d]pyrimidine-4-carboxamide], on adenosine A2B receptor, the Ratio turned out to be 1.42. Also, the IC50 on adenosine A2B receptor was 10 to 50 nM; at adenosine A2A receptor it was 10 to 50 nM; on adenosine A1 receptor [5], more than 500 nM; on adenosine A3 receptor [6], 50 to 100 nM. The inhibition at 10 µM at CYP3A4 worked out at 38%; at CYP2D6, 3%. Further, the “LM CLint” value in data set [7] was 39.84 μL/min/mg/protein; in [8], 14.10 μL/min/mg/protein. The intrinsic metabolic clearance (hepatocyte CLint) in [9] came out at 126 µL/min/1e6 cells; in data set [10] it was 24.9 µL/min/1e6 cells.
For `C[C@H]1CCN(C(=O)c2nc(N[C@@H](C)c3cccnc3)nc3ccsc23)C1` [Example Z63, ((S)-3-Methylpyrrolidin-1-yl)(2-(((S)-1-(pyridin-3-yl)ethyl)amino)thieno[3,2-d]pyrimidin-4-yl)methanone], at adenosine A2B receptor, the Ratio was 12.78. In addition, the IC50 was 10 to 50 nM on adenosine A2B receptor, 100 to 500 nM on adenosine A2A receptor, more than 500 nM against adenosine A1 receptor [5] and more than 500 nM against adenosine A3 receptor [6]. Also, the figures for the inhibition at 10 µM on CYP3A4 and on CYP2D6 were 83% and 39%, respectively. The “LM CLint” value is listed as 71.55 μL/min/mg/protein in data set [7] and 47.64 μL/min/mg/protein in data set [8]. The hepatocyte CLint in [9] worked out at 65.9 µL/min/1e6 cells; in data set [10], 24.5 µL/min/1e6 cells.
On to `COc1ccc(CNC(=O)c2nc(N[C@@H](C)c3ccccn3)nc3ccsc23)cn1` [Example Z16, (S)—N-((6-Methoxypyridin-3-yl)methyl)-2-((1-(pyridin-2-yl)ethyl)amino)thieno[3,2-d]pyrimidine-4-carboxamide], for which the Ratio at adenosine A2B receptor is reported as 1.67. The half-maximal inhibitory concentration (IC50) at adenosine A2B receptor was 10 to 50 nM; at adenosine A2A receptor it was 50 to 100 nM; against adenosine A1 receptor [5] it was more than 500 nM; at adenosine A3 receptor [6], more than 500 nM. Further, the inhibition at 10 µM at CYP3A4 was 46%; on CYP2D6 it was 13%. Moreover, the “LM CLint” value is 32.42 μL/min/mg/protein in data set [7] and 17.68 μL/min/mg/protein in [8]. Also, the hepatocyte CLint came to 58.6 µL/min/1e6 cells in data set [9] and 14.5 µL/min/1e6 cells in data set [10].
For `C[C@@H]1CCN(C(=O)c2nc(N[C@@H](C)c3cccnc3)nc3ccsc23)C1` [Example Z34, ((R)-3-Methylpyrrolidin-1-yl)(2-(((S)-1-(pyridin-3-yl)ethyl)amino)thieno[3,2-d]pyrimidin-4-yl)methanone], at adenosine A2B receptor, the Ratio was determined as 4.99. Besides, the half-maximal inhibitory concentration (IC50) is 10 to 50 nM on adenosine A2B receptor, 100 to 500 nM at adenosine A2A receptor, more than 500 nM against adenosine A1 receptor [5] and more than 500 nM against adenosine A3 receptor [6]. Moreover, the inhibition at 10 µM at CYP3A4 amounted to 82%; on CYP2D6 it was 22%. For the same compound, the “LM CLint” value in data set [7] turned out to be 81.23 μL/min/mg/protein; in [8] it was 53.26 μL/min/mg/protein. Besides, the intrinsic metabolic clearance (hepatocyte CLint) was 131 µL/min/1e6 cells in [9] and 23.5 µL/min/1e6 cells in data set [10].
